# Reference: patent publication US11096931B2, “Amide derivatives useful in the treatment of HBV infection or HBV-induced diseases” (Janssen Sciences Ireland Unlimited Company, priority 2019, dated 2021)
# Like-named read-outs stand apart in the source and are kept apart here.
# Experiments:
# [1] = tested on: HBV; test: anti HBV activity, HepG2.117 cell line, intracellular HBV DNA by real-time PCR; assay type: cell-based, hepatitis B virus; settings: for EC50: Hepatitis B virus, read-out: HBV-AVE-HepG2.117_intra_EC50; for improved anti-HBV activity, fold improvement over Ref. compound 59: from table 4 EC50 values
# Experimental: The anti HBV activity was measured using the HepG2.117 cell line, a stable, inducible HBV producing cell line, which replicates HBV in the absence of doxicycline (Tet-off system). The HepG2 cell line is available from ATCC® under number HB-8065. Transfection of the HepG2 cell line can be as described in Sun and Nassal 2006 Journal of Hepatology 45 (2006) 636-645 “Stable HepG2-and Huh7-based human hepatoma cell lines for efficient regulated expression of infectious hepatitis B virus”.
# For the antiviral assay, HBV replication was induced, followed by a treatment with serially diluted compound in 96-well plates. After 3 days of treatment, the antiviral activity was determined by quantification of intracellular HBV DNA using real-time PCR and an HBV specific primer set and probe.
# [2] = Cytotoxicity, ATPlite cell viability; assay type: cell-based; settings: human, mean value, HepG2 or HepG2.117 cells
# Experimental: Cytotoxicity of the compounds was tested using HepG2 or HepG2.117 cells, incubated for 4 days in the presence of compounds. The viability of the cells was assessed using the Perkin Elmer ATPlite Luminescence Assay System.”
# [3] = 72 h, mean value, HepG2.117 cells, 3 days of treatment, intracellular HBV DNA
SMILES,"EC50 [1, 3]",CC50 at 4 days [2],"EC50 ([1]; HepG2.117, 72 h)","improved anti-HBV activity, fold improvement over Ref. compound 59 [1]"
Cc1c(C(=O)C(=O)NC2(c3cn[nH]n3)CC(F)(F)C2)cn(C)c1C(=O)Nc1ccc(F)c(C#N)c1F [Compound 46],11 nM,> 50000 nM,–,–
"Cc1c(C(=O)C(=O)N[C@H](CC(F)(F)F)c2cn[nH]n2)c(C)n(C)c1C(=O)Nc1ccc(F)c(C#N)c1 (single isomer, unassigned) [44*R]",5 nM,> 50000 nM,–,–
Cn1cc(C(=O)C(=O)NC2(c3cn[nH]n3)CC(F)(F)C2)c(F)c1C(=O)Nc1ccc(F)c(Cl)c1 [Compound 7],11 nM,13500 nM,–,–
Cn1cc(C(=O)C(=O)NC2(c3cn[nH]n3)CC(F)(F)C2)c(Br)c1C(=O)Nc1ccc(F)c(C#N)c1 [Compound 31],3 nM,> 50000 nM,–,–
"Cc1c(C(=O)C(=O)N[C@@H](CC(F)(F)F)c2cn[nH]n2)c(C)n(C)c1C(=O)Nc1ccc(F)c(C#N)c1 (single isomer, unassigned) [44*S]",< 12 nM,> 50000 nM,–,–
Cc1nc(C2(NC(=O)C(=O)c3cc(C(=O)Nc4ccc(F)c(C#N)c4)n(C)c3)CC(F)(F)C2)n[nH]1 [Compound 22],124 nM,29500 nM,–,–
"Cc1cc(NC(=O)c2cc(C(=O)C(=O)NC3(c4cn[nH]n4)CC(F)(F)C3)cn2C)ccc1F [Compound 2, 4-[{[3,3-Difluoro-1-(2H-1,2,3-triazol-4-yl)cyclobutyl]amino}(oxo)acetyl]-N-(4-fluoro-3-methylphenyl)-1-methyl-1H-pyrrole-2-carboxamide]",–,23800 nM,32 nM,~18 fold
"Cc1cc(NC(=O)c2cc(C(=O)C(=O)NCc3cn[nH]n3)cn2C)ccc1F [Ref. 59, reference compound]",583 nM,> 50000 nM,–,–
Cn1c(C#N)c(C(=O)C(=O)NC2(c3cn[nH]n3)CC(F)(F)C2)c(F)c1C(=O)Nc1ccc(F)c(C#N)c1 [Compound 50],1280 nM,> 50000 nM,–,–
Cc1c(C(=O)C(=O)NC(CC(F)(F)F)c2cn[nH]n2)c(C)n(C)c1C(=O)Nc1ccc(F)c(C#N)c1 (stereo not drawn) [Compound 44RS],4 nM,> 50000 nM,–,–
Cn1cc(C(=O)C(=O)NC2(c3cn[nH]n3)CC(F)(F)C2)cc1C(=O)Nc1ccc(F)c(Cl)c1 [Compound 6],17 nM,7100 nM,–,–
Cc1c(C(=O)C(=O)NC2(c3cn[nH]n3)CC(F)(F)C2)c(Cl)c(C(=O)Nc2ccc(F)c(C#N)c2)n1C [Compound 23],4 nM,> 50000 nM,–,–
Cn1cc(C(=O)C(=O)NC2(c3cnnn3C)CC(F)(F)C2)c(Cl)c1C(=O)Nc1ccc(F)c(Cl)c1 [Compound 14],4 nM,> 50000 nM,–,–
Cc1c(C(=O)C(=O)NC2(c3cn[nH]n3)CC(F)(F)C2)c(Cl)n(C)c1C(=O)Nc1ccc(F)c(Br)c1 [Compound 40],4 nM,6600 nM,–,–
Cn1cc(C(=O)C(=O)NC2(c3cn[nH]n3)CS(=O)(=O)C2)cc1C(=O)Nc1ccc(F)c(C#N)c1 [Compound 21],1270 nM,> 50000 nM,–,–
Cc1c(C(=O)C(=O)NC(C)(c2cn[nH]n2)C(F)(F)F)cn(C)c1C(=O)Nc1ccc(F)c(C#N)c1 (stereo not drawn) [Compound 51],13 nM,> 50000 nM,–,–
"Cc1c(C(=O)C(=O)N[C@@]2(c3cn[nH]n3)CCC(F)(F)C2)cn(C)c1C(=O)Nc1ccc(F)c(Cl)c1 (single isomer, unassigned) [25*S]",4 nM,24200 nM,–,–
Cn1cc(C(=O)C(=O)NC2(c3cn[nH]n3)CC(F)(F)C2)c(Cl)c1C(=O)Nc1ccc(F)c(Cl)c1 [Compound 3],6 nM,22000 nM,–,–
Cc1cc(NC(=O)c2cc(C(=O)C(=O)NC(C)(C)c3cn[nH]n3)cn2C)ccc1F [Compound 9],19 nM,> 50000 nM,–,–
Cn1cc(C(=O)C(=O)NC2(c3nc[nH]n3)CC(F)(F)C2)cc1C(=O)Nc1ccc(F)c(C#N)c1 [Compound 30],142 nM,31100 nM,–,–
Cn1cc(C(=O)C(=O)N[C@H](c2cnn[nH]2)C(C)(C)C)cc1C(=O)Nc1ccc(F)c(C#N)c1 (stereo in doubt) [Compound 11],100 nM,26000 nM,–,–

SMILES,"EC50 [1, 3]",CC50 at 4 days [2],"EC50 ([1]; HepG2.117, 72 h)","improved anti-HBV activity, fold improvement over Ref. compound 59 [1]"
Cn1cc(C(=O)C(=O)NC2(c3cn[nH]n3)COC2)cc1C(=O)Nc1ccc(F)c(C#N)c1 [Compound 17],171 nM,> 50000 nM,–,–
Cc1c(C(=O)C(=O)NC2(c3cn[nH]n3)CC(F)(F)C2)c(Cl)n(C)c1C(=O)Nc1ccc(F)c(Cl)c1 [Compound 35],4 nM,5800 nM,–,–
"Cn1cc(C(=O)C(=O)N[C@@]2(c3cn[nH]n3)C[C@@H]2C(F)F)cc1C(=O)Nc1ccc(F)c(C#N)c1 (single isomer, unassigned) [27*R*R]",273 nM,24300 nM,–,–
"Cc1cc(NC(=O)c2cc(C(=O)C(=O)NC(C)c3cn[nH]n3)cn2C)ccc1F (stereo not drawn) [Compound 1, N-(4-Fluoro-3-methylphenyl)-1-methyl-4-(oxo{[1-(2H-1,2,3-triazol-4-yl)ethyl]amino}acetyl)-1H-pyrrole-2-carboxamide]",–,> 50000 nM,51 nM,~10 fold
Cn1cc(C(=O)C(=O)NC2(c3cn[nH]n3)CC(F)(F)C2)c(C2CC2)c1C(=O)Nc1ccc(F)c(C#N)c1 [Compound 38],24 nM,> 50000 nM,–,–
Cn1cc(C(=O)C(=O)NC2(c3cn[nH]n3)CC(F)(F)C2)c(Cl)c1C(=O)Nc1ccc(F)c(C#N)c1 [Compound 8],6 nM,> 50000 nM,–,–
"Cn1cc(C(=O)C(=O)N[C@]2(c3cn[nH]n3)CCC(F)(F)C2)cc1C(=O)Nc1ccc(F)c(C#N)c1 (single isomer, unassigned) [18*R]",15 nM,14100 nM,–,–
Cn1cc(C(=O)C(=O)NC(CC(F)F)c2cn[nH]n2)cc1C(=O)Nc1ccc(F)c(C#N)c1 (stereo not drawn) [Compound 24RS],60 nM,22100 nM,–,–
"Cc1c(C(=O)C(=O)N[C@](C)(c2cn[nH]n2)C(F)F)cn(C)c1C(=O)Nc1ccc(F)c(C#N)c1 (single isomer, unassigned) [48*R]",12 nM,> 50000 nM,–,–
Cc1c(C(=O)C(=O)NC(CC(F)F)c2cn[nH]n2)c(C)n(C)c1C(=O)Nc1ccc(F)c(C#N)c1 (stereo not drawn) [Compound 29],9 nM,> 50000 nM,–,–
Cc1c(C(=O)C(=O)NC2(c3cn[nH]n3)CC(F)(F)C2)c(Br)n(C)c1C(=O)Nc1ccc(F)c(Cl)c1 [Compound 41],2 nM,7200 nM,–,–
Cc1c(C(=O)C(=O)N[C@]2(c3cn[nH]n3)C[C@H](F)C2)cn(C)c1C(=O)Nc1ccc(F)c(C#N)c1 [Compound 57cis],12 nM,> 50000 nM,–,–
Cn1ncc(C2(NC(=O)C(=O)c3cn(C)c(C(=O)Nc4ccc(F)c(Cl)c4)c3Cl)CC(F)(F)C2)n1 [Compound 16],3 nM,> 50000 nM,–,–
Cn1cc(C(=O)C(=O)NC2(c3cn[nH]n3)CC(F)(F)C2)cc1C(=O)Nc1ccc(F)c(C#N)c1 [Compound 4],63 nM,8200 nM,–,–
Cc1c(C(=O)C(=O)NC2(c3cn[nH]n3)CC(F)(F)C2)c(C2CC2)n(C)c1C(=O)Nc1ccc(F)c(Cl)c1 [Compound 54],3 nM,26300 nM,–,–
"Cc1c(C(=O)C(=O)N[C@@H](CC(F)(F)F)c2cn[nH]n2)cn(C)c1C(=O)Nc1ccc(F)c(C#N)c1 (single isomer, unassigned) [47*S]",11 nM,> 50000 nM,–,–
Cn1cc(C(=O)C(=O)NC2(c3cn[nH]n3)CC(F)(F)C2)c(F)c1C(=O)Nc1ccc(F)c(C#N)c1 [Compound 5],10 nM,11900 nM,–,–
"Cn1cc(C(=O)C(=O)N[C@@H](CC(F)F)c2cn[nH]n2)cc1C(=O)Nc1ccc(F)c(C#N)c1 (single isomer, unassigned) [24*S]",562 nM,28200 nM,–,–
COc1c(C(=O)C(=O)NC2(c3cn[nH]n3)CC(F)(F)C2)cn(C)c1C(=O)Nc1ccc(F)c(C#N)c1 [Compound 32],27 nM,31700 nM,–,–
"Cc1c(C(=O)C(=O)N[C@H](CC(F)(F)F)c2cn[nH]n2)cn(C)c1C(=O)Nc1ccc(F)c(C#N)c1 (single isomer, unassigned) [47*R]",21 nM,> 50000 nM,–,–
